Laboratory results reported in US6482849B1, “Inhibitors of α4β1 mediated cell adhesion” (Tanabe Seiyaku Co., Ltd., priority 1997, dated 2002).
Where a name gives a salt, the structure may show the parent alone.

What was measured:
[1] = molecular target: T1, α4β1 integrin (Jurkat cell adhesion to immobilized CS-1 derived peptide CLHPGEILDVPST) (Homo sapiens, UniProt P05556+P13612); assay: Jurkat-CS-1 Assay; type: cell-based; conditions: Jurkat cells on CS-1 peptide coated plates
T1 construct: 100 μl of Jurkat cells (2.5×10^6 cells/ml) in DMEM plus BSA; endogenous in cells; host or cells: Jurkat T-cell line
T1 sequence (P13612 34-1032): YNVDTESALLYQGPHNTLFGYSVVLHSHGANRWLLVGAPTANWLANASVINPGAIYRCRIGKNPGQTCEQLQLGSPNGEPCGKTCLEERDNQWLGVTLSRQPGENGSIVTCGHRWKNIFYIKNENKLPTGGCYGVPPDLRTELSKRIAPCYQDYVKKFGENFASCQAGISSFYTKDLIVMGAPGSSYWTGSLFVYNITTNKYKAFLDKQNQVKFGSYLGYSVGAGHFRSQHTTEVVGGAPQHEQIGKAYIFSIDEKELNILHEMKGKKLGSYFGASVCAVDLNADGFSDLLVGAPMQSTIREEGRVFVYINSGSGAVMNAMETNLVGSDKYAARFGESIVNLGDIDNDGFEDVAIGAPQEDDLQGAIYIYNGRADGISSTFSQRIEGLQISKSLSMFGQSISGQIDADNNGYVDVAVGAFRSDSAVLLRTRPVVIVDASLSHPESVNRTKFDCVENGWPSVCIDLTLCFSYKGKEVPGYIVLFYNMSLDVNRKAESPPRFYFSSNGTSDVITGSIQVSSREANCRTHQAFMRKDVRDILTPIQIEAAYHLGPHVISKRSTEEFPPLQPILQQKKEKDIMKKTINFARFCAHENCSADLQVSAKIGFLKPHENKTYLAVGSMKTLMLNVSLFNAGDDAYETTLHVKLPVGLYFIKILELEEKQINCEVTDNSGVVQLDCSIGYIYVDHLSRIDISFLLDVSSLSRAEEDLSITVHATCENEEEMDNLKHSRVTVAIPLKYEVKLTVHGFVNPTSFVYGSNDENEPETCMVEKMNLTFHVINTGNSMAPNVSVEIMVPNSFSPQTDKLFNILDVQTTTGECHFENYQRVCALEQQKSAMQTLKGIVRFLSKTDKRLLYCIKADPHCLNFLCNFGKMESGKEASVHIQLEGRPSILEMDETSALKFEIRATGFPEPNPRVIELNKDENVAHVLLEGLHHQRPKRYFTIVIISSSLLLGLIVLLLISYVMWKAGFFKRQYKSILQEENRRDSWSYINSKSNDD
T1 sequence (P05556 21-798): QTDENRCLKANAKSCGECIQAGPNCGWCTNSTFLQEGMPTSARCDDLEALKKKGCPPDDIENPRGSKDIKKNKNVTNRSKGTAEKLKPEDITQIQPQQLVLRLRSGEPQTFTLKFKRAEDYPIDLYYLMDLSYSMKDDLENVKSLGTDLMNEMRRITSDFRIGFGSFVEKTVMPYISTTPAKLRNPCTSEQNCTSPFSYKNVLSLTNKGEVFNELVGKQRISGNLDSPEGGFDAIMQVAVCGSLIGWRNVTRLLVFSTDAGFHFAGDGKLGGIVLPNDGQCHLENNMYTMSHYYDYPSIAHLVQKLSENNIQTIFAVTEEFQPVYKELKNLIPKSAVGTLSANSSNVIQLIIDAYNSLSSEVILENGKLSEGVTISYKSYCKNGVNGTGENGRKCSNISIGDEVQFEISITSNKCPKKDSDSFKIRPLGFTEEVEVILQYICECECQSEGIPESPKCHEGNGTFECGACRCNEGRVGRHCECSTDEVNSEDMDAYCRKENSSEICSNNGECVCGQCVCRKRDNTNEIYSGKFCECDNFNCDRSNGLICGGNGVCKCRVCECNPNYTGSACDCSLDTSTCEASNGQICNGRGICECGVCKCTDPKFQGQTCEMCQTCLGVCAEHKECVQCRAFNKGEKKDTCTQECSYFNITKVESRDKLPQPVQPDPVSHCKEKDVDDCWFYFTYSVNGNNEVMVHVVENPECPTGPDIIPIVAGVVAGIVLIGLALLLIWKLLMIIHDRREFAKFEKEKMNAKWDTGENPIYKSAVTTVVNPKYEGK
Experimental: The CS-1 derived peptide, CLHPGEILDVPST, and the scrambled control peptide, CLHGPIELVSDPT, were synthesized on a Beckman 990 synthesizer using t-Boc methodology. The peptides were immobilized onto microtiter plates using the heterobifunctional crosslinker 3-(2-pyridyldithio)propionic acid N-hydroxysuccinimide ester (SPDP) as reported by Pierschbacher et al., Proc. Natl. Acad. USA, 80:1224-1227 (1983). Microtiter plates were coated with 20 μg/ml HSA for 2 hr. at room temperature, washed once with PBS and derivatized with 10 μg/ml SPDP for 1 hr. After washing, 100 μl of a 100 μg/ml cysteine containing peptide solution which had been recently dissolved was added to the wells and allowed to crosslink to the plates overnight at 4° C. Unbound peptide was removed from plates by washing with PBS. To block non-reacted sites, the plates are coated with 100 μl of a 2.5 mg/ml BSA solution in PBS for 1 hr. at 37° C. 100 μl of Jurkat cells (2.5×10^6 cells/ml) in DMEM plus BSA (2.5 mg/ml) was mixed with an appropriate concentration of the compound to be tested and the mixture was added to peptide coated dishes and incubated for 1 hr. at 37° C. Generally 100, 20, 5 and 1.25 μM concentrations of the compound were tested.
Following this incubation the plates were washed once with PBS and the attached cells were fixed with 3% paraformaldehyde in PBS and stained with 0.5% toluidine blue in 3.7% formaldehyde. The cells were stained overnight at room temperature and the optical density at 590 nm of toluidine blue stained cells was determined using a vertical pathway spectrophotometer to quantitate attachment (VMAX Kinetic Microplate Reader, Molecular Devices, Menlo Park, Calif.). This procedure is a modification of a previously published method (Cardarelli et al, J. Biol. Chem., 269:18668-18673 (1994) and Cardarelli et al, Proc. Natl. Acad. Sci. USA, 83:2647-2651 (1986)).

[2] = molecular target: T2, α4β1 integrin (Jurkat T-cell adhesion to IL-1 stimulated endothelial cell monolayers) (Homo sapiens, UniProt P05556+P13612); assay: Jurkat-Endothelial Cell Adhesion Assay (Jurkat EC); type: cell-based; conditions: Jurkat cells on IL-1 stimulated HUVEC monolayers
T2 construct: a T-cell line, Jurkat, known to express the α4β1 integrin; host or cells: Jurkat T-cell line
T2 sequence (P13612 34-1032): as the sequence (P13612 34-1032) above
T2 sequence (P05556 21-798): as the sequence (P05556 21-798) above
Experimental: The following assay established the activity of the present compounds in inhibiting β1-mediated cell adhesion in a representative in vitro system. This assay measures the adhesive interactions of a T-cell line, Jurkat, known to express the α4β1 integrin, to endothelial monolayers in the presence of test compounds. The test compounds were added in increasing concentrations to T-cells and then the T-cell compound mixture was added to IL-1 stimulated endothelial cell monolayers. The plates were incubated, washed and the percentage of attached cells was quantitated. […] Human umbilical vein endothelial cells were purchased from Clonetics (San Diego, Calif.) at passage number 2. The cells were grown on 0.5% porcine skin gelatin pre-coated flasks (Sigma, St. Louis Mo.) in EGM-UV media (Clonetics, San Diego, Calif.) supplemented with 10% fetal bovine serum. Cells are refed every 2-3 days reaching confluence by day 4 to 6. […] The endothelial cells are not used following passage 6. Am The T-cell line Jurkat was obtained from American Type Tissue Culture Collection (Rockville, Md.) and the cells were cultured in RPMI containing 10% fetal calf serum. The cells were washed twice in Hank's Balanced Salt Solution (HBSS) and resuspended in Dulbecco's […] Eagle's Media (DMEM) containing 2.5 mg/ml Human Serum Albumin (HSA). Jurkat cells (1×10^6 cells/ml) were stained with 10 ng/ml BCECF-AM z z (Molecular Probes, Eugene, Ore.)) in HBSS without phenol red. The cells were loaded with BCECF for 60 minutes in the dark at 37° C., washed 2 times, and resusupended in DMEM-HSA solution.
Confluent endothelial monolayers, grown in 96-well tissue culture plates, were stimulated for 4 hr. at 37° C. with 0.1 ng/ml (˜50 U/ml) recombinant IL-1 (Amgen, Thousand Oaks, Calif.). Following this incubation, the monolayers were washed twice with HBSS and 0.1 ml of DMEM-HSA solution was added. Jurkat cells (5×10^5 cells) were combined with the appropriate concentration of the test compound and 0.1 ml of the Jurkat cell-compound mixture was added to the endothelial cell monolayers. Generally, 100, 20, 5 and 1.25 μM compound concentrations were tested. […] The plates were placed on ice for 5 minutes to allow for Jurkat cell settling and the plates were incubated at 37° C. for 20 minutes. Following this incubation, the monolayers were washed twice with PBS containing 1 mM calcium chloride and 1 mM magnesium chloride and the plates were read using a Millipore Cytofluor 2300 (Marlboro, Mass.). Fluorescence in each well was measured as Arbitrary Fluorescence Units and percent adhesion in the absence of compound was adjusted to 100% and the % adhesion in the presence of compound was calculated. Monolayers were also fixed in 3% paraformaldehyde and evaluated microscopically to verify the adhesion. This procedure is a modification of a previously published method (Cardarelli et al., J. Biol. Chem. 269:18668-18673 (1994)).

Row | SMILES | IC50 [1] | IC50 [2]
1 | CC1(C)[C@@H](C(=O)O)CC[C@@]1(C)NC(=O)N[C@]1(C)CC[C@H](C(=O)N[C@@H](Cc2ccc(NC(=O)c3c(Cl)cccc3Cl)cc2)C(=O)O)C1(C)C (relative stereo) [Example 236, [1S-[1α,3α(1S*,3R*)-N-]]-N-[[3[[[(3-Carboxy-1,2,2-trimethylcyclopentyl)amino]carbonyl]-amino]-2,2,3-trimethylcyclopentyl]carbonyl]-4-[(2,6-dichlorobenzoyl)-amino]-L-phenylalanine] | 80 to 500 nM | ≤ 800 nM
2 | COC(=O)[C@H](Cc1ccc(NC(=O)c2c(Cl)cccc2Cl)cc1)NC(=O)[C@H]1CC[C@@](C)(C(=O)O)C1(C)C [Example 53, (1S-cis)-N-[(3-Carboxy-2,2,3-trimethylcyclopentyl)carbonyl]-4-[(2,6-dichlorobenzoyl)amino]-L-phenylalanine methyl ester] | 500 to 1000 nM | 800 to 5000 nM
3 | CC1(C)[C@@H](C(=O)N[C@@H](Cc2ccc(OCc3c(Cl)cccc3Cl)c(Cl)n2)C(=O)O)CC[C@@]1(C)C(=O)O (relative stereo) [Example 194, [1S-[1α(R*),3α]]-α-[[(3-Carboxy-2,2,3-trimethylcyclopentyl)carbonyl]amino]-6-chloro-5-[(2,6-dichlorophenyl)methoxy]-2-pyridinepropanoic acid] | 80 to 500 nM | 800 to 5000 nM
4 | COC(=O)[C@H](Cc1ccc(NC(=O)c2cc(C(F)(F)F)ccc2C(F)(F)F)cc1)NC(=O)[C@H]1CC[C@@](C)(C(=O)O)C1(C)C [Example 103] | ≤ 80 nM | ≤ 800 nM
5 | CC1(C)[C@@H](C(=O)N[C@@H](Cc2ccc(NC(=O)c3c(Cl)cccc3Cl)cc2)C(=O)O)CC[C@@]1(C)C(=O)N1CCC[C@@H]1C(N)=O (relative stereo) [Example 212, [1S-[1α,3α(S*)]]-N-[3-[[2-(Aminocarbonyl)-1-pyrrolidinyl]carbonyl]-2,2,3-trimethylcyclopentyl]-carbonyl]-4-[(2,6-dichlorobenzoyl)amino]-L-phenylalanine monolithium salt] | 80 to 500 nM | 5000 to 10000 nM
6 | CC1(C)[C@@H](C(=O)N[C@@H](Cc2ccc(NC(=O)c3c(Cl)cccc3Cl)cc2)C(=O)O)CC[C@@]1(C)C(=O)NCCC(=O)O [Example 214] | ≤ 80 nM | ≤ 800 nM
7 | CC1(C)[C@@H](C(=O)N[C@H](Cc2ccc(OCc3c(Cl)cccc3Cl)cn2)C(=O)O)CC[C@@]1(C)C(=O)O (relative stereo) [Example 254, [1S-[1α(R*),3α]]-α-[[(3-Carboxy-2,2,3-trimethylcyclopentyl)carbonyl]amino]-3-[(2,6-dichlorophenyl)methoxy]-6-pyridinepropanoic acid] | 80 to 500 nM | 800 to 5000 nM
8 | CC(C)(C)c1ccc(C(=O)Nc2ccc(C[C@H](NC(=O)[C@H]3CC[C@@](C)(C(=O)O)C3(C)C)C(=O)O)cc2)c(Cl)c1 [Example 253, (1S-cis)-N-[(3-Carboxy-2,2,3-trimethylcyclopentyl)carbonyl]-4-[[2-chloro-4-[(1,1-dimethyl)ethyl]benzoyl]amino]-L-phenylalanine] | 80 to 500 nM | 800 to 5000 nM
9 | CC1(C)[C@@H](C(=O)N[C@@H](Cc2ccc(NC(=O)c3c(Cl)cccc3Cl)cc2)C(=O)O)CC[C@@]1(C)C(=O)N[C@H](CCCCN)C(=O)O (relative stereo) [Example 179] | ≤ 80 nM | 5000 to 10000 nM
10 | CC1(C)[C@@H](C(=O)N[C@@H](Cc2ccc(NC(=O)c3ccccc3[N+](=O)[O-])cc2)C(=O)O)CC[C@@]1(C)C(=O)O [Example 102] | ≤ 80 nM | ≤ 800 nM
11 | CC1(C)[C@@H](C(=O)N[C@@H](Cc2cn(Cc3ccc(Cl)cc3)cn2)C(=O)O)CC[C@@]1(C)C(=O)O [Example 28] | 80 to 500 nM | 800 to 5000 nM
12 | CC1(C)[C@@H](C(=O)N[C@@H](Cc2cn(Cc3ccccc3C(F)(F)F)cn2)C(=O)O)CC[C@@]1(C)C(=O)O [Example 36] | 500 to 1000 nM | 5000 to 10000 nM

The remaining lines, values ahead:

Row | IC50 [1] | IC50 [2] | SMILES
13 | ≤ 80 nM | ≤ 800 nM | C[C@H](NC(=O)[C@]1(C)CC[C@H](C(=O)N[C@@H](Cc2ccc(NC(=O)c3c(Cl)cccc3Cl)cc2)C(=O)O)C1(C)C)C(=O)O (relative stereo) [Example 211, [1S-[1α,3α(S*)]]-N-[[3-[[(1-Carboxyethyl)amino]carbonyl]-2,2,3-trimethylcyclopentyl]carbonyl]-4-[(2,6-dichlorobenzoyl)amino]-L-phenylalanine]
14 | 80 to 500 nM | 800 to 5000 nM | CC1(C)[C@@H](C(=O)N[C@@H](Cc2cn(Cc3ccc(Cl)cc3Cl)cn2)C(=O)O)CC[C@@]1(C)C(=O)O [Example 24]
15 | 500 to 1000 nM | 800 to 5000 nM | CC1(C)[C@@H](C(=O)N[C@@H](Cc2cn(Cc3c(Cl)cccc3Cl)cn2)C(=O)O)CC[C@@]1(C)C(=O)O [Example 26]
16 | ≤ 80 nM | ≤ 800 nM | COC(=O)[C@H](Cc1ccc(NC(=O)c2c(Cl)cc(Cl)cc2Cl)cc1)NC(=O)[C@H]1CC[C@@](C)(C(=O)O)C1(C)C [Example 92]
17 | 80 to 500 nM | 800 to 5000 nM | CC1(C)[C@@H](C(=O)N[C@@H](Cc2ccc(OCc3c(Cl)cccc3Cl)cc2)C(=O)O)CC[C@@]1(C)C(=O)NCC(N)=O [Example 187, (1S-cis)-N-[[3-[[(2-amino-2-oxoethyl)-amino]carbonyl]-2,2,3-trimethylcyclopentyl]carbonyl]-O-[(2,6-dichlorophenyl)methyl]-L-tyrosine]
18 | ≤ 80 nM | ≤ 800 nM | CC1(C)[C@@H](C(=O)N[C@@H](Cc2ccc(NC(=O)c3c(Cl)cccc3Cl)cc2)C(=O)O)CC[C@@]1(C)C(=O)NCCC#N [Example 216, (1S-cis)-N-[[3-[[(2-Cyanoethyl)amino]carbonyl]-2,2,3-trimethylcyclopentyl]carbonyl]-4-[(2,6-dichlorobenzoyl)amino]-L-phenylalanine]
19 | 80 to 500 nM | 800 to 5000 nM | CC1(C)[C@@H](C(=O)N[C@@H](Cc2ccc(NC(=O)c3c(Cl)cccc3Cl)cc2)C(=O)O)CC[C@@]1(C)C(=O)N1CCC[C@H]1C(N)=O (relative stereo) [Example 213, [1S-[1α,3α(R*)]]-N-[3-[[2-(Aminocarbonyl)-1-pyrrolidinyl]carbonyl]-2,2,3-trimethylcyclopentyl]-carbonyl]-4-[(2,6-dichlorobenzoyl)amino]-L-phenylalanine monosodium salt]
20 | 80 to 500 nM | 800 to 5000 nM | CC1(C)[C@@H](C(=O)N[C@@H](Cc2ccc(C(=O)Nc3ccc(-c4ccccc4)cc3)cc2)C(=O)O)CC[C@@]1(C)C(=O)O [Example 220]
